Drawing on US20250145594A1, “MODULATORS OF THE INTEGRATED STRESS PATHWAY” (Calico Life Sciences LLC, priority 2020, published 2025), this text covers EC50 for 24 molecules.

For the experiment, the system named is ATF4 luciferase reporter in HEK293T cells. In words: ATF4-Luc assay (in vitro model of VWMD). The class given is cell-based, human. Particulars: Homo sapiens, HEK-293T, 7 h, HEK293T cells carrying the ATF4 luciferase reporter, 1 μg/mL tunicamycin, One Glo luminescence. In outline: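 Stable HEK293T line expressing firefly luciferase behind the human ATF4 5′-UTR, treated with 1 μg/mL tunicamycin plus compound for 7 hours. Luminescence read with One Glo; EC50 determined.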
The EC50 is the concentration that produces a half-maximal response. As for `O=C(NC12CC(n3cc(-c4ccc(OC(F)F)nc4)cn3)(C1)C2)[C@@H]1C[C@@H](O)c2cc(Cl)ccc2O1` [Compound 332, (2S,4R)-6-chloro-N-(3-{4-[6-(difluoromethoxy)pyridin-3-yl]-1H-pyrazol-1-yl}bicyclo[1.1.1]pentan-1-yl)-4-hydroxy-3,4-dihydro-2H-1-benzopyran-2-carboxamide], the EC50 is less than 10 nM.
Under `O=C(NC12CC(OCC(=O)N3CC(OC(F)(F)F)C3)(C1)C2)[C@H]1C[C@@H](O)c2cc(Cl)ccc2O1` [Compound 333, (2R,4R)-6-chloro-4-hydroxy-N-(3-{2-oxo-2-[3-(trifluoromethoxy)azetidin-1-yl]ethoxy}bicyclo[1.1.1]pentan-1-yl)-3,4-dihydro-2H-1-benzopyran-2-carboxamide] stands 50 to 250 nM; under `O=C(NC12CC(OCC(=O)N3CCC(OC(F)(F)F)C3)(C1)C2)[C@H]1C[C@@H](O)c2cc(Cl)ccc2O1` (stereo partly drawn) [Compound 334, (2R,4R)-6-chloro-4-hydroxy-N-(3-{2-oxo-2-[3-(trifluoromethoxy)pyrrolidin-1-yl]ethoxy}bicyclo[1.1.1]pentan-1-yl)-3,4-dihydro-2H-1-benzopyran-2-carboxamide], 50 to 250 nM.
As for `O=C(NC12CC(OCC(=O)N3CC(COC(F)(F)F)C3)(C1)C2)[C@H]1C[C@@H](O)c2cc(Cl)ccc2O1` [Compound 335, (2R,4R)-6-chloro-4-hydroxy-N-[3-(2-oxo-2-{3-[(trifluoromethoxy)methyl]azetidin-1-yl}ethoxy)bicyclo[1.1.1]pentan-1-yl]-3,4-dihydro-2H-1-benzopyran-2-carboxamide], the EC50 was 50 to 250 nM.
As for `O=C(NC12CC(n3cc(N4CC[C@@H](COC(F)(F)F)C4)cn3)(C1)C2)[C@H]1C[C@@H](O)c2cc(Cl)ccc2O1` [Compound 336, (2R,4R)-6-chloro-4-hydroxy-N-[3-(4-{(3R)-3-[(trifluoromethoxy)methyl]pyrrolidin-1-yl}-1H-pyrazol-1-yl)bicyclo[1.1.1]pentan-1-yl]-3,4-dihydro-2H-1-benzopyran-2-carboxamide], the EC50 is 50 to 250 nM.
Then `O=C(NC12CC(n3cc(N4CC(COC(F)(F)F)C4)cn3)(C1)C2)[C@H]1C[C@@H](O)c2cc(Cl)ccc2O1` [Compound 337, (2R,4R)-6-chloro-4-hydroxy-N-[3-(4-{3-[(trifluoromethoxy)methyl]azetidin-1-yl}-1H-pyrazol-1-yl)bicyclo[1.1.1]pentan-1-yl]-3,4-dihydro-2H-1-benzopyran-2-carboxamide], with 10 to 50 nM; and `O=C(NC12CC(n3cc(-c4ccc(OC(F)(F)F)cn4)cn3)(C1)C2)[C@@H]1C[C@H](O)c2cc(C(F)(F)F)ccc2O1` [Compound 338, (2S,4S)-4-hydroxy-N-(3-{4-[5-(trifluoromethoxy)pyridin-2-yl]-1H-pyrazol-1-yl}bicyclo[1.1.1]pentan-1-yl)-6-(trifluoromethyl)-3,4-dihydro-2H-1-benzopyran-2-carboxamide], with less than 10 nM; and `O=C(NC12CC(n3cc(CN4CC[C@H](OC(F)(F)F)C4)cn3)(C1)C2)[C@H]1C[C@@H](O)c2cc(Cl)ccc2O1` [Compound 339, (2R,4R)-6-chloro-4-hydroxy-N-[3-(4-{[(3S)-3-(trifluoromethoxy)pyrrolidin-1-yl]methyl}-1H-pyrazol-1-yl)bicyclo[1.1.1]pentan-1-yl]-3,4-dihydro-2H-1-benzopyran-2-carboxamide], with 250 to 500 nM.
With `CC(=O)N1CC=C(c2cnn(C34CC(NC(=O)[C@H]5C[C@@H](O)c6cc(Cl)ccc6O5)(C3)C4)c2)CC1` [Compound 340, (2R,4R)—N-{3-[4-(1-acetyl-1,2,3,6-tetrahydropyridin-4-yl)-1H-pyrazol-1-yl]bicyclo[1.1.1]pentan-1-yl}-6-chloro-4-hydroxy-3,4-dihydro-2H-1-benzopyran-2-carboxamide], the EC50 lay within 50 to 250 nM.
Under `O=C(NC12CC(n3cc(C(=O)N4CC(OC(F)(F)F)C4)cn3)(C1)C2)[C@H]1C[C@@H](O)c2cc(Cl)ccc2O1` [Compound 341, (2R,4R)-6-chloro-4-hydroxy-N-(3-{4-[3-(trifluoromethoxy)azetidine-1-carbonyl]-1H-pyrazol-1-yl}bicyclo[1.1.1]pentan-1-yl)-3,4-dihydro-2H-1-benzopyran-2-carboxamide] stands 10 to 50 nM.
As for `O=C(COC12CC(NC(=O)[C@H]3C[C@@H](O)c4cc(Cl)ccc4O3)(C1)C2)N[C@H]1C[C@@H](OC(F)(F)F)C1` [Compound 342, (2R,4R)-6-chloro-4-hydroxy-N-[3-(2-oxo-2-{[cis-3-(trifluoromethoxy)cyclobutyl]amino}ethoxy)bicyclo[1.1.1]pentan-1-yl]-3,4-dihydro-2H-1-benzopyran-2-carboxamide], the EC50 was 10 to 50 nM.
Under `O=C(NC12CC(n3cnc(-c4ccc(Cl)cc4F)c3)(C1)C2)[C@H]1C[C@@H](O)c2cc(Cl)ccc2O1` [Compound 343, (2R,4R)-6-chloro-N-{3-[4-(4-chloro-2-fluorophenyl)-1H-imidazol-1-yl]bicyclo[1.1.1]pentan-1-yl}-4-hydroxy-3,4-dihydro-2H-1-benzopyran-2-carboxamide] stands less than 10 nM; under `O=C(NC12CC(n3cnc(-c4c(F)cc(Cl)cc4F)c3)(C1)C2)[C@H]1C[C@@H](O)c2cc(Cl)ccc2O1` [Compound 344, (2R,4R)-6-chloro-N-{3-[4-(4-chloro-2,6-difluorophenyl)-1H-imidazol-1-yl]bicyclo[1.1.1]pentan-1-yl}-4-hydroxy-3,4-dihydro-2H-1-benzopyran-2-carboxamide], less than 10 nM; under `Cn1nc(C23CC(NC(=O)COc4ccc(Cl)c(F)c4)(C2)C3)cc1O[C@H]1C[C@@H](OC(F)(F)F)C1` [Compound 345, 2-(4-chloro-3-fluorophenoxy)-N-[3-(1-methyl-5-{[cis-3-(trifluoromethoxy)cyclobutyl]oxy}-1H-pyrazol-3-yl)bicyclo[1.1.1]pentan-1-yl]acetamide], 50 to 250 nM.
Take `O=C(NC12CC(n3cc(-c4ccc(OC(F)(F)F)cn4)cn3)(C1)C2)[C@@H]1C[C@@H](O)c2cc(Cl)ccc2O1` [Compound 346, (2S,4R)-6-chloro-4-hydroxy-N-(3-{4-[5-(trifluoromethoxy)pyridin-2-yl]-1H-pyrazol-1-yl}bicyclo[1.1.1]pentan-1-yl)-3,4-dihydro-2H-1-benzopyran-2-carboxamide]: the EC50 is less than 10 nM.
Under `O=C(NC12CC(n3cc(-c4cnc(C(F)(F)F)c(F)c4)cn3)(C1)C2)[C@H]1C[C@@H](O)c2cc(Cl)ccc2O1` [Compound 347, (2R,4R)-6-chloro-N-(3-{4-[5-fluoro-6-(trifluoromethyl)pyridin-3-yl]-1H-pyrazol-1-yl}bicyclo[1.1.1]pentan-1-yl)-4-hydroxy-3,4-dihydro-2H-1-benzopyran-2-carboxamide] stands less than 10 nM; under `O=C(NC12CC(n3cc(C(=O)N4CC(COC(F)F)C4)cn3)(C1)C2)[C@H]1C[C@@H](O)c2cc(Cl)ccc2O1` [Compound 348, (2R,4R)-6-chloro-N-[3-(4-{3-[(difluoromethoxy)methyl]azetidine-1-carbonyl}-1H-pyrazol-1-yl)bicyclo[1.1.1]pentan-1-yl]-4-hydroxy-3,4-dihydro-2H-1-benzopyran-2-carboxamide], 50 to 250 nM; under `O=C(NC12CC(n3cc(-c4ccc(OC(F)(F)F)nc4)cn3)(C1)C2)[C@H]1C[C@@H](O)c2cc(Cl)ccc2O1` [Compound 350, (2R,4R)-6-chloro-4-hydroxy-N-(3-{4-[6-(trifluoromethoxy)pyridin-3-yl]-1H-pyrazol-1-yl}bicyclo[1.1.1]pentan-1-yl)-3,4-dihydro-2H-1-benzopyran-2-carboxamide], less than 10 nM.
Under `O=C(NC12CC(n3cc(-c4ccc(OC(F)(F)F)nc4)cn3)(C1)C2)[C@@H]1C[C@@H](O)c2cc(Cl)ccc2O1` [Compound 351, (2S,4R)-6-chloro-4-hydroxy-N-(3-{4-[6-(trifluoromethoxy)pyridin-3-yl]-1H-pyrazol-1-yl}bicyclo[1.1.1]pentan-1-yl)-3,4-dihydro-2H-1-benzopyran-2-carboxamide] stands less than 10 nM.
Under `O=C(NC12CC(n3cc(N4CC(OC(F)(F)F)C4)cn3)(C1)C2)[C@H]1C[C@@H](O)c2cc(Cl)ccc2O1` [Compound 352, (2R,4R)-6-chloro-4-hydroxy-N-(3-{4-[3-(trifluoromethoxy)azetidin-1-yl]-1H-pyrazol-1-yl}bicyclo[1.1.1]pentan-1-yl)-3,4-dihydro-2H-1-benzopyran-2-carboxamide] stands 10 to 50 nM.
Take `O=C(COc1ccc(Cl)c(F)c1)NC12CC(C(=O)NC34CC(C(F)(F)F)(C3)C4)(C1)C2` [Compound 353, 3-[2-(4-chloro-3-fluorophenoxy)acetamido]-N-[3-(trifluoromethyl)bicyclo[1.1.1]pentan-1-yl]bicyclo[1.1.1]pentane-1-carboxamide]: the EC50 fell in the range of 50 to 250 nM.
For `O=C(NC12CC(n3cc(-c4ccc(C(F)(F)F)cn4)cn3)(C1)C2)[C@H]1C[C@@H](O)c2cc(C(F)(F)F)ccc2O1` [Compound 354, (2R,4R)-4-hydroxy-6-(trifluoromethyl)-N-(3-{4-[5-(trifluoromethyl)pyridin-2-yl]-1H-pyrazol-1-yl}bicyclo[1.1.1]pentan-1-yl)-3,4-dihydro-2H-1-benzopyran-2-carboxamide], the EC50 was less than 10 nM.
`O=C(NC12CC(n3cc(N4CC[C@H](OC(F)(F)F)C4)cn3)(C1)C2)[C@H]1C[C@@H](O)c2cc(Cl)ccc2O1` [Compound 355, (2R,4R)-6-chloro-4-hydroxy-N-(3-{4-[(3S)-3-(trifluoromethoxy)pyrrolidin-1-yl]-1H-pyrazol-1-yl}bicyclo[1.1.1]pentan-1-yl)-3,4-dihydro-2H-1-benzopyran-2-carboxamide]: the EC50 lay within 10 to 50 nM.
`O=C(NC12CC(n3cc(N4CC[C@@H](OC(F)(F)F)C4)cn3)(C1)C2)[C@H]1C[C@@H](O)c2cc(Cl)ccc2O1` [Compound 356, (2R,4R)-6-chloro-4-hydroxy-N-(3-{4-[(3R)-3-(trifluoromethoxy)pyrrolidin-1-yl]-1H-pyrazol-1-yl}bicyclo[1.1.1]pentan-1-yl)-3,4-dihydro-2H-1-benzopyran-2-carboxamide]: the EC50 is less than 10 nM.
